Source: patent US8546440B2, “Substituted bicyclic imidazole derivatives as gamma secretase modulators” (Janssen Pharmaceuticals, Inc., priority 2008, dated 2013)

Columns and labels:
Aβtotal [1] = assay: Demonstration of in vivo efficacy: Aβtotal lowering in brain after single oral dose (Table 13); settings: mouse brain soluble fraction, mean, compared to untreated animals
Excerpt: (§1) To determine whether acute administration of an Aβ42 lowering agent would reduce Aβ42 levels in vivo, non-transgenic rodents, e.g. mice or rats were used. Alternatively, two to three month old Tg2576 mice expressing APP695 containing the “Swedish” variant can be used or a transgenic mouse model developed by Dr. Fred Van Leuven (K. U. Leuven, Belgium) and co-workers, with neuron-specific expression of a clinical mutant of the human amyloid precursor protein [V717I] (Moechars et al., 1999 J. Biol. Chem. 274, 6483). Young transgenic mice have high levels of Aβ in the brain but no detectable Aβ deposition. At approximately 6-8 months of age, the transgenic mice start to display spontaneous, progressive accumulation of β-amyloid (Aβ) in the brain, eventually resulting in amyloid plaques within the subiculum, hippocampus and cortex. Animals treated with the Aβ42 lowering agent were examined and compared to those untreated or treated with vehicle and brain levels of soluble Aβ42 and total Aβ would be quantitated by standard techniques, for example, using ELISA. Treatment periods varied from hours to days and were adjusted based on the results of the Aβ42 lowering once a time course of onset of effect could be established.
(§2) A typical protocol for measuring Aβ42 lowering in vivo is shown but it is only one of many variations that could be used to optimize the levels of detectable Aβ. For example, Aβ42 lowering compounds were formulated in 20% of Captisol® (a sulfobutyl ether of β-cyclodextrin) in water or 20% hydroxypropyl β cyclodextrin. The Aβ42 lowering agents were administered as a single oral dose or by any acceptable route of administration to overnight fasted animals. After four hours, the animals were sacrificed and Aβ42 levels were analysed.
(§3) Blood was collected by decapitation and exsanguinations in EDTA-treated collection tubes. Blood was centrifuged at 1900 g for 10 minutes at 4° C. and the plasma recovered and flash frozen for later analysis. The brain was removed from the cranium and hindbrain. The cerebellum was removed and the left and right hemisphere were separated. The left hemisphere was stored at −18° C. for quantitative analysis of test compound levels. The right hemisphere was rinsed with phosphate-buffered saline (PBS) buffer and immediately frozen on dry ice and stored at −80° C. until homogenization for biochemical assays.
Mouse brains were resuspended in 10 volumes of 0.4% DEA (diethylamine)/50 mM NaCl pH 10 (for non-transgenic animals) or 0.1% 3-[3-cholamidopropyl)-dimethyl-ammonio]-1-propanesulfonate (CHAPS) in tris buffered saline (TBS) (for transgenic animals) containing protease inhibitors (Roche-11873580001 or 04693159001) per gram of tissue, e.g. for 0.158 g brain, add 1.58 ml of 0.4% DEA. All samples were sonicated for 30 seconds on ice at 20% power output (pulse mode). Homogenates were centrifuged at 221.300×g for 50 min. The resulting high speed supernatants were then transferred to fresh tubes and were optionally further purified before the next step. A portion of the supernatant was neutralized with 10% 0.5 M Tris-HCl and this was used to quantify Aβtotal. […]
In this model at least 20% Aβ42 lowering compared to untreated animals would be advantageous.

Aβ42 [2] = assay: Demonstration of in vivo efficacy: Aβ42 lowering in brain after single oral dose (Table 13); settings: mouse brain soluble fraction, ELISA, mean, compared to untreated animals
Excerpt: as §1, §2, §3
Mouse brains were resuspended in 10 volumes of 0.4% DEA (diethylamine)/50 mM NaCl pH 10 (for non-transgenic animals) or 0.1% 3-[3-cholamidopropyl)-dimethyl-ammonio]-1-propanesulfonate (CHAPS) in tris buffered saline (TBS) (for transgenic animals) containing protease inhibitors (Roche-11873580001 or 04693159001) per gram of tissue, e.g. for 0.158 g brain, add 1.58 ml of 0.4% DEA. All samples were sonicated for 30 seconds on ice at 20% power output (pulse mode). Homogenates were centrifuged at 221.300×g for 50 min. The resulting high speed supernatants were then transferred to fresh tubes and were optionally further purified before the next step. A portion of the supernatant was neutralized with 10% 0.5 M Tris-HCl and this was used to quantify Aβtotal.
The obtained supernatants were purified with Water Oasis HLB reverse phase columns (Waters Corp., Milford, Mass.) to remove non-specific immunoreactive material from the brain lysates prior subsequent Aβ detection. Using a vacuum manifold, all solutions were passed through the columns at a rate of approximately 1 ml per minute, so the vacuum pressure was adjusted accordingly throughout the procedure. Columns were preconditioned with 1 ml of 100% MeOH, before equilibration with 1 ml of H2O. Non-neutralized brain lysates were loaded onto the columns. The loaded samples were then washed twice with the first wash performed with 1 ml of 5% MeOH, and the second wash with 1 ml of 30% MeOH. Finally, the Aβ was eluted from the columns and into 100×30 mm glass tubes, with a solution of 90% MeOH with 2% NH4OH. […]

Aβtotal [3] = assay: Screening for γ-secretase-modulating activity, Method 2: Aβtotal Alphalisa in supernatant of SKNBE2 cells carrying APP 695 wild type (Table 12c); assay type: cell-based; settings: Method 2, Table 12c, incubated overnight
How it was run: (§4)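 SKNBE2 cells expressing wild-type APP695, 10^4 cells/well, exposed to compound overnight at 37 °C; secreted Aβ42 and Aβtotal in supernatant measured by AlphaLISA sandwich immunoassays (Aβ42: C-terminal/N-terminal antibodies; Aβtotal: N-terminal/4G8). IC50 from 4-parameter fit of % untreated control.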

Aβ42 [4] = assay: Screening for γ-secretase-modulating activity, Method 2: Aβ42 Alphalisa in supernatant of SKNBE2 cells carrying APP 695 wild type (Table 12c); assay type: cell-based; settings: Method 2, Table 12c, incubated overnight
How it was run: as §4

Row | Compound | Aβtotal (% Ctrl)_Mean (Aβtotal [1]) [% Ctrl] | Aβ42 (% Ctrl)_Mean (Aβ42 [2]) [% Ctrl] | IC50 (Aβtotal [3]; Homo sapiens) [nM] | IC50 (Aβ42 [4]; Homo sapiens) [nM] | IC50 (Aβtotal [3]) [nM] | IC50 (Aβ42 [4]) [nM]
1 | COc1cc(Nc2cccn3c(C)c(-c4ccccc4)nc23)ccc1-n1cnc(C)c1 [Compound 5] | 96 | 66 | – | – | – | –
2 | COc1cc(Nc2cccn3cc(C)nc23)ccc1-n1cnc(C)c1 [Compound 50] | 96 | 67 | > 10000 | 309 | – | –
3 | COc1cc(Nc2cccn3c(C)c(-c4ccccc4C(F)(F)F)nc23)ccc1-n1cnc(C)c1 [Compound 29] | 86 | 56 | 7080 | 13 | – | –
4 | COc1cc(Nc2cccn3c(C)c(-c4c(F)cccc4F)nc23)ccc1-n1cnc(C)c1 [Compound 27] | 94 | 59 | – | – | – | –
5 | Cc1ncn(-c2ccc(Nc3cccn4cc(-c5ccccc5C)nc34)cc2)n1 [Compound 71] | 103 | 91 | > 3020 | 407 | – | –
6 | COc1cc(Nc2cccn3c(Cl)c(-c4ccc(F)cc4)nc23)ccc1-n1cnc(C)c1 [Compound 2] | 106 | 100 | – | – | – | –
7 | COc1cccc(-c2cn3cccc(Nc4ccc(-n5cnc(C)c5)c(OC)c4)c3n2)c1 [Compound 33] | 98 | 80 | 5750 | 71 | – | –
8 | COc1cc(Nc2cccn3cc(-c4ccc(F)cc4)nc23)ccc1-n1cnc(C)c1 [Compound 1] | 103 | 65 | 7410 | 155 | – | –
9 | COc1cc(Nc2cccn3c(C)c(-c4ccccc4Cl)nc23)ccc1-n1cnc(C)c1 [Compound 15] | 94 | 62 | 5500 | 38 | – | –
10 | COc1cc(Nc2cccn3cc(C4CCOCC4)nc23)ccc1-n1cnc(C)c1 [Compound 4] | 111 | 93 | > 10000 | 166 | – | –
11 | COc1nc(Nc2cccn3c(C)c(-c4ccccc4C(F)(F)F)nc23)ccc1-n1cnc(C)c1 [Compound 138] | 102 | 65 | – | – | 5890 | 5
